Drawing on US20250188110A1, “SPECIFIC SMALL MOLECULE INHIBITORS THAT BLOCK KMT9 METHYLTRANSFERASE ACTIVITY AND FUNCTION” (ALBERT-LUDWIGS-UNIVERSITÄT FREIBURG, priority 2021, published 2025), this text covers Kd, ΔTm and IC50 for 18 compounds.

Like-named read-outs stand apart in the source and are kept apart here.

For test [1], the target named is T1, KMT9 (Homo sapiens, UniProt Q9Y5N5).
T1 sequence (Q9Y5N5 1-214): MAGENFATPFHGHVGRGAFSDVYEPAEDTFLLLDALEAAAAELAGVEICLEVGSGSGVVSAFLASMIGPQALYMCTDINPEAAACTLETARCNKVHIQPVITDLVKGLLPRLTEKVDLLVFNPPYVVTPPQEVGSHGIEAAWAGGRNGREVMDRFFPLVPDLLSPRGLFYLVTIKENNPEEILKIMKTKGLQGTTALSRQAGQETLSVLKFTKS
T1 sequence (Q9UI30 1-120 isoform Q9UI30-2 partner): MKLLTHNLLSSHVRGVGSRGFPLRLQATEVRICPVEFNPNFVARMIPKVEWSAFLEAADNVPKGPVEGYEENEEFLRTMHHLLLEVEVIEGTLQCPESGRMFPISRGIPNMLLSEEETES
Put plainly: Microscale thermophoresis (MST) KMT9 binding. The essentials:
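Kd from microscale thermophoresis: compound series against 20 nM His-KMT9 labelled via RED-Tris-NTA, buffer 25 mM HEPES (pH 7.5)/100 mM NaCl/1 mM DTT/0.05% Tween, 40% MST power, 100% LED. Reported as classes: A ≤10 nM, B >10–100 nM, C >100–1000 nM, D >1000 nM.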
A general note: In MST a laser heats a spot of the sample, and binding alters the fluorescence response.

Test [2] has as its target T1, KMT9. Put plainly: KMT9 thermal shift assay (SyproOrange). Format: binding. The essentials: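 ΔTm versus DMSO-only control is reported in bins (>20 K, 15–20 K, 10–15 K, ≤10 K), using Tm from Boltzmann sigmoidal fits of SyproOrange melt curves. KMT9 with compound in pH 8.5 BTP buffer containing MgCl2 and DTT was preincubated at 25° C, then ramped 1° C per 15 s up to 95° C.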

The target of test [3] is T1, KMT9. Put plainly: KMT9 methyltransferase inhibition assay, MTaseGlo luminescence (from entry 155). Format: biochemical. Particulars: 100 nM KMT9, 5 μM ETF1, 1 μM SAM. A digest of the protocol: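 KMT9 (100 nM final) pre-incubated with inhibitor for 15 min at room temperature, then reacted with 5 μM ETF1 and 1 μM SAM for 2 h at 30° C. at 2% DMSO final. MTaseGlo luminescence read after 60 min detection; IC50 reported in four potency bins.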

[4] abbreviates: His-tag labelled KMT9 20 nM, Kd class, read-out: MST.
The mark [5] stands for this setting: ΔTm class, 500 uM compound, 2 μM KMT9, read-out: Thermal shift.
Where [6] appears, read: IC50 class, MTaseGlo procedure (entries from 155 on), read-out: Inhibition.
The mark [7] stands for this setting: His-tag labelled KMT9 20 nM, read-out: MST (Kd).
Where [8] appears, read: 500 µM compound, 2 μM KMT9, read-out: Thermal shift (ΔTm).
[9] abbreviates: MTaseGlo procedure (entries from 155), read-out: Inhibition (IC50).
[10] abbreviates: microscale thermophoresis, His-tag labelled KMT9 (20 nM), read-out: MST.
The mark [11] stands for this setting: ΔTm, 500 µM compound, 2 μM KMT9, 5X SO, read-out: Thermal shift.
The mark [12] stands for this setting: from entry 155: MTaseGlo assay, read-out: Inhibition.

Turning to `Nc1ncnc2c1ccn2[C@@H]1C[C@H](c2cccc(-c3cncs3)c2)[C@@H](O)[C@H]1O` [Compound 653, (1R,2S,3R,5R)-3-(4-amino-7H-pyrrolo[2,3-d]pyrimidin-7-yl)-5-(3-(thiazol-5-yl)phenyl)cyclopentane-1,2-diol], on KMT9 [1] (setting [4]), the Kd was over 1000 nM. Further, the ΔTm at 500 µM at KMT9 [2] (setting [5]) was at most 10 °C. Moreover, the IC50 on KMT9 [3] (setting [6]) was over 10000 nM.

For the compound `CN(CCCNCCc1ccc(F)cc1)C[C@H]1C[C@@H](n2cc(-c3nc(Cc4ccccc4)cs3)c3c(N)nc(Cl)nc32)[C@H](O)[C@@H]1O` [Compound 647, (1R,2S,3R,5R)-3-(4-Amino-5-(4-benzylthiazol-2-yl)-2-chloro-7H-pyrrolo[2,3-d]pyrimidin-7-yl)-5-(((3-((4-fluorophenethyl)amino)propyl)(methyl)amino)methyl)cyclopentane-1,2-diol], at KMT9 [1] (setting [7]), the Kd was in the range of 10 to 100 nM. For the same compound, the ΔTm at 500 µM on KMT9 [2] (setting [8]) was over 20 °C. Also, at KMT9 [3] (setting [9]), the IC50 fell in the range of 1000 to 10000 nM.

As to `CN1CCC([C@H]2C[C@@H](n3cc(-c4ccn(S(=O)(=O)c5ccccc5)n4)c4c(N)nc(Cl)nc43)[C@H](O)[C@@H]2O)CC1` [Compound 492, (1R,2S,3R,5R)-3-(4-Amino-2-chloro-5-(1-(phenylsulfonyl)-1H-pyrazol-3-yl)-7H-pyrrolo[2,3-d]pyrimidin-7-yl)-5-(1-methylpiperidin-4-yl)cyclopentane-1,2-diol], at KMT9 [1] (setting [4]), the Kd is at most 10 nM. In addition, the ΔTm at 500 µM on KMT9 [2] (setting [5]) was over 20 °C. Further, the IC50 at KMT9 [3] (setting [6]) lay within 100 to 1000 nM.

For `O[C@@H]1[C@@H](CNCCCNCCc2ccc(C(F)(F)F)cc2)C[C@@H](n2cc(-c3cc(Cc4ccccc4)cs3)c3cncnc32)[C@@H]1O` [Compound 619, (1R,2S,3R,5R)-3-(5-(4-Benzylthiophen-2-yl)-7H-pyrrolo[2,3-d]pyrimidin-7-yl)-5-(((3-((4-(trifluoromethyl)phenethyl)amino)propyl)amino)methyl)cyclopentane-1,2-diol], at KMT9 [1] (setting [4]), the Kd was over 1000 nM. Moreover, the ΔTm at 500 µM at KMT9 [2] (setting [5]) was at most 10 °C. For the same compound, the IC50 on KMT9 [3] (setting [6]) is over 10000 nM.

As to `CCc1cn([C@@H]2C[C@H](CNCCCNCCc3ccc(F)cc3)[C@@H](O)[C@H]2O)c2ncnc(N)c12` [Compound 381, (1R,2S,3R,5R)-3-(4-amino-5-ethyl-7H-pyrrolo[2,3-d]pyrimidin-7-yl)-5-(((3-((4-fluorophenethyl)amino)propyl)amino)methyl) cyclopentane-1,2-diol], at KMT9 [1] (setting [10]), the Kd lay in the range of 100 to 1000 nM. For the same compound, the ΔTm at 500 µM on KMT9 [2] (setting [11]) was in the range of 10 to 15 °C. The IC50 on KMT9 [3] (setting [12]) was 1000 to 10000 nM.

For `CNc1nc(Cl)nc2c1ccn2[C@@H]1C[C@H](c2ccccc2)[C@@H](O)[C@H]1O` [Compound 596, (1R,2S,3R,5R)-3-(2-Chloro-4-(methylamino)-7H-pyrrolo[2,3-d]pyrimidin-7-yl)-5-phenylcyclopentane-1,2-diol], the Kd at KMT9 [1] (setting [7]) was in the range of 100 to 1000 nM. In addition, the ΔTm at 500 µM on KMT9 [2] (setting [8]) is at most 10 °C. The IC50 at KMT9 [3] (setting [9]) lay in the range of 1000 to 10000 nM.

As to `CN(CCCNCCc1ccc(F)cc1)C[C@H]1C[C@@H](n2cc(-c3ccn(Cc4ccccc4)n3)c3c(N)nc(Cl)nc32)[C@H](O)[C@@H]1O` [Compound 643, (1R,2S,3R,5R)-3-[4-Amino-5-(1-benzylpyrazol-3-yl)-2-chloropyrrolo[2,3-d]pyrimidin-7-yl]-5-{[(3-{[2-(4-fluorophenyl)ethyl]amino}propyl)(methyl)amino]methyl}cyclopentane-1,2-diol], the Kd at KMT9 [1] (setting [7]) was at most 10 nM. At KMT9 [2] (setting [8]), the ΔTm at 500 µM is over 20 °C. In addition, at KMT9 [3] (setting [9]), the IC50 was 100 to 1000 nM.

As for `CNc1ncnc2c1ccn2[C@@H]1C[C@H](c2cn[nH]c2)[C@@H](O)[C@H]1O` [Compound 657, (1R,2S,3R,5R)-3-[4-(Methylamino)pyrrolo[2,3-d]pyrimidin-7-yl]-5-(1H-pyrazol-4-yl)cyclopentane-1,2-diol], the Kd on KMT9 [1] (setting [7]) was over 1000 nM. Also, the ΔTm at 500 µM on KMT9 [2] (setting [8]) is at most 10 °C. Besides, the IC50 on KMT9 [3] (setting [9]) was over 10000 nM.

Take `Nc1ncnc2c1ccn2[C@@H]1C[C@H](c2ccc3ccccc3c2)[C@@H](O)[C@H]1O` [Compound 387, (1R,2S,3R,5R)-3-(4-amino-7H-pyrrolo[2,3-d]pyrimidin-7-yl)-5-(naphthalen-2-yl) cyclopentane-1,2-diol]: the Kd on KMT9 [1] (setting [10]) was over 1000 nM. For the same compound, at KMT9 [2] (setting [11]), the ΔTm at 500 µM was at most 10 °C. Moreover, on KMT9 [3] (setting [12]), the IC50 is over 10000 nM.

Take `Nc1nc(Cl)nc2c1c(Br)cn2[C@@H]1C[C@H](c2cccc(CN3CCC3)c2)[C@@H](O)[C@H]1O` [Compound 673, (1R,2S,3R,5R)-3-(4-amino-5-bromo-2-chloro-7H-pyrrolo[2,3-d]pyrimidin-7-yl)-5-(3-(azetidin-1-ylmethyl)phenyl)cyclopentane-1,2-diol]: the Kd at KMT9 [1] (setting [7]) was at most 10 nM. In addition, the ΔTm at 500 µM at KMT9 [2] (setting [8]) lay in the range of 15 to 20 °C. For the same compound, at KMT9 [3] (setting [9]), the IC50 was in the range of 100 to 1000 nM.

As for `Nc1nc(Cl)nc2c1ccn2[C@@H]1C[C@H](c2cnn(CCc3ccccc3)c2)[C@@H](O)[C@H]1O` [Compound 584, (1R,2S,3R,5R)-3-(4-Amino-2-chloro-7H-pyrrolo[2,3-d]pyrimidin-7-yl)-5-(1-phenethyl-1H-pyrazol-4-yl)cyclopentane-1,2-diol], the Kd on KMT9 [1] (setting [7]) was over 1000 nM. Also, the ΔTm at 500 µM on KMT9 [2] (setting [8]) was at most 10 °C. The IC50 on KMT9 [3] (setting [9]) was over 10000 nM.

`Nc1nc(Cl)nc2c1ccn2[C@@H]1C[C@H](c2cc[nH]c(=O)c2)[C@@H](O)[C@H]1O` [Compound 662, 4-[(1R,2R,3S,4R)-4-{4-Amino-2-chloropyrrolo[2,3-d]pyrimidin-7-yl}-2,3-dihydroxycyclopentyl]-1H-pyridin-2-one]: on KMT9 [1] (setting [7]), the Kd fell in the range of 100 to 1000 nM. At KMT9 [2] (setting [8]), the ΔTm at 500 µM was at most 10 °C. The IC50 at KMT9 [3] (setting [9]) was in the range of 1000 to 10000 nM.

Take `Nc1nc(Cl)nc2c1c(-c1ccn(Cc3ccccc3)n1)cn2[C@@H]1C[C@H](CNCCCNCCc2ccccc2)[C@@H](O)[C@H]1O` [Compound 636, (1R,2S,3R,5R)-3-(4-Amino-5-(1-benzyl-1H-pyrazol-3-yl)-2-chloro-7H-pyrrolo[2,3-d]pyrimidin-7-yl)-5-(((3-(phenethylamino)propyl)amino)methyl)cyclopentane-1,2-diol]: at KMT9 [1] (setting [10]), the Kd is at most 10 nM. In addition, on KMT9 [2] (setting [11]), the ΔTm at 500 µM was over 20 °C. Further, the IC50 on KMT9 [3] (setting [12]) lay in the range of 100 to 1000 nM.

In the case of `Nc1ncnc2c1ccn2[C@@H]1C[C@H]([C@H]2CCCN2)[C@@H](O)[C@H]1O` [Compound 398, (1R,2S,3R,5R)-3-(4-amino-7H-pyrrolo[2,3-d]pyrimidin-7-yl)-5-((R)-pyrrolidin-2-yl) cyclopentane-1,2-diol], the Kd on KMT9 [1] (setting [7]) is over 1000 nM. For the same compound, at KMT9 [2] (setting [8]), the ΔTm at 500 µM was at most 10 °C. Moreover, the IC50 on KMT9 [3] (setting [9]) is over 10000 nM.

For the compound `O[C@@H]1[C@@H](CNCCCNCCc2ccccc2)C[C@@H](n2cc(-c3cc(Cc4ccccc4)cs3)c3cncnc32)[C@@H]1O` [Compound 637, (1R,2S,3R,5R)-3-(5-(4-benzylthiophen-2-yl)-7H-pyrrolo[2,3-d]pyrimidin-7-yl)-5-(((3-(phenethylamino)propyl)amino)methyl)cyclopentane-1,2-diol], at KMT9 [1] (setting [10]), the Kd is over 1000 nM. At KMT9 [2] (setting [11]), the ΔTm at 500 µM is 10 to 15 °C. The IC50 on KMT9 [3] (setting [12]) was in the range of 1000 to 10000 nM.

Turning to `Nc1ncnc2c1c(-c1nccs1)cn2[C@@H]1C[C@H](c2ccccc2)[C@@H](O)[C@H]1O` [Compound 395, (1R,2S,3R,5R)-3-(4-amino-5-(thiazol-2-yl)-7H-pyrrolo[2,3-d]pyrimidin-7-yl)-5-phenylcyclopentane-1,2-diol], at KMT9 [1] (setting [10]), the Kd is over 1000 nM. For the same compound, the ΔTm at 500 µM on KMT9 [2] (setting [11]) is at most 10 °C. Besides, the IC50 on KMT9 [3] (setting [12]) is over 10000 nM.

Turning to `CNc1nc(Cl)nc2c1ccn2[C@@H]1C[C@H](c2cn[nH]c2)[C@@H](O)[C@H]1O` [Compound 583, (1R,2S,3R,5R)-3-[2-chloro-4-(methylamino)pyrrolo[2,3-d]pyrimidin-7-yl]-5-(1H-pyrazol-4-yl)cyclopentane-1,2-diol], the Kd on KMT9 [1] (setting [7]) is over 1000 nM. Besides, the ΔTm at 500 µM on KMT9 [2] (setting [8]) was at most 10 °C. Further, the IC50 at KMT9 [3] (setting [9]) was over 10000 nM.

Take `Nc1nc(Cl)nc2c1c(-c1nc(Cc3ccccc3)cs1)cn2[C@@H]1C[C@H](C2CCN(Cc3ccncc3)CC2)[C@@H](O)[C@H]1O` [Compound 527, (1R,2S,3R,5R)-3-(4-amino-5-(4-benzylthiazol-2-yl)-2-chloro-7H-pyrrolo[2,3-d]pyrimidin-7-yl)-5-(1-(pyridin-4-ylmethyl)piperidin-4-yl)cyclopentane-1,2-diol]: the Kd at KMT9 [1] (setting [7]) lay in the range of 10 to 100 nM. Also, on KMT9 [2] (setting [8]), the ΔTm at 500 µM is 10 to 15 °C. Further, the IC50 at KMT9 [3] (setting [9]) was 1000 to 10000 nM.
